Assay results reported in ChEMBL document CHEMBL5625159, “Challenges for the development of mutant isocitrate dehydrogenases 1 inhibitors to treat glioma” (Eur J Med Chem, 2023).
Each block holds one molecule with its values, some of them ahead of it.

Experiments:
[1] = target: T1, Isocitrate dehydrogenase [NADP] cytoplasmic (Homo sapiens, UniProt O75874, R132H); experiment: Inhibition of C-terminal His8-tagged human recombinant IDH1 R132H mutant expressed as Escherichia coli BL21 (DE3) cells using alpha KG as substrate preincubated with compound for 30 mins followed by substrate addition measured after […] by HTS assay
[2] = target: T1, Isocitrate dehydrogenase [NADP] cytoplasmic; experiment: Inhibition of IDH1 R132H mutant (unknown origin) expressed in Escherichia coli in presence of alpha-KG and NADPH by fluorescence based biochemical assay
[3] = target: T1, Isocitrate dehydrogenase [NADP] cytoplasmic; experiment: Inhibition of human IDH1 R132H mutant
[4] = target: T2, Isocitrate dehydrogenase [NADP] cytoplasmic (Homo sapiens, UniProt O75874, R132C); experiment: Inhibition of human […] IDH1 R132C mutant expressed in Escherichia coli BL21 (DE3) cells incubated for 60 mins by fluorescence based analysis
[5] = target: T1, Isocitrate dehydrogenase [NADP] cytoplasmic; experiment: Inhibition of human […] IDH1 R132H mutant expressed in Escherichia coli BL21 (DE3) cells incubated for 60 mins by fluorescence based analysis
[6] = target: T1, Isocitrate dehydrogenase [NADP] cytoplasmic; experiment: Inhibition of human IDH1 R132H mutant heterodimer in presence of alpha-ketoglutarate and NADPH by fluorescence based biochemical assay
[7] = system: HCT-116; experiment: Antiproliferative activity against human HCT-116 cells assessed as reduction in cell viability measured after 5 days by Celltiter-Glo assay; type: functional, cell-based; settings: HCT-116, 120 h
[8] = system: HT-1080; experiment: Antiproliferative activity against human HT-1080 cells assessed as cell growth inhibition by MTT assay; type: functional, cell-based
[9] = target: T2, Isocitrate dehydrogenase [NADP] cytoplasmic; experiment: Inhibition of C-terminal Hexahistidine-tagged human recombinant IDH1 R132C mutant expressed in Escherichia coli BL21 (DE3) cells assessed as NADPH consumption in presence of alpha KG incubated for 1 hr by MST assay
[10] = target: T2, Isocitrate dehydrogenase [NADP] cytoplasmic; experiment: Inhibition of IDH1 R132C mutant (unknown origin) expressed in Escherichia coli BL21 (DE3) cells
[11] = target: T1, Isocitrate dehydrogenase [NADP] cytoplasmic; experiment: Inhibition of full length N-terminal GST-tagged human IDH1 R132H mutant expressed in Escherichia coli in presence of alpha-KG by fluorescence based biochemical assay
[12] = target: T3, Isocitrate dehydrogenase [NADP] cytoplasmic (Homo sapiens, UniProt O75874); experiment: Inhibition of full length N-terminal GST-tagged human wild type IDH1 expressed in Escherichia coli in presence of NADPH by fluorescence based biochemical assay
[13] = target: T4, Isocitrate dehydrogenase [NADP], mitochondrial (Homo sapiens, UniProt P48735, R140Q); experiment: Inhibition of N-terminal His-tagged human recombinant IDH2 R140Q mutant (41 to 452) expressed in baculovirus system incubated for 60 mins by size-exclusion chromatography analysis
[14] = target: T1, Isocitrate dehydrogenase [NADP] cytoplasmic; experiment: Inhibition of N-terminal His-tagged human recombinant IDH1 R132H mutant (1 to 414) expressed in Sf9 incubated for 60 mins by size-exclusion chromatography analysis
[15] = system: HCT-116; experiment: Antiproliferative activity against human HCT-116 cells assessed as reduction in cell viability incubated for 5 days by Celltiter-Glo assay; type: functional, cell-based; settings: HCT-116, 120 h
[16] = Brain to plasma ratio in mouse at 50 mg/kg, iv; type: ADME, organism-based; settings: brain and plasma, read-out: BPR
[17] = system: HCT-116; experiment: Antiproliferative activity against human HCT-116 cells assessed as reduction in cell growth by MTT assay; type: functional, cell-based
[18] = system: HT-1080; experiment: Antiproliferative activity against human HT-1080 cells harboring IDH1 […] mutant measured after 72 hrs by MTT assay; type: functional, cell-based; settings: HT-1080, 72 h
[19] = system: U-87 MG; experiment: Antiproliferative activity against human U-87 MG cells harboring IDH1 R132H mutant measured after 72 hrs by MTT assay; type: functional, cell-based, U-87MG ATCC
[20] = Inhibition of IDH2 R172Q mutant (unknown origin); parameters: species or system Homo sapiens
[21] = target: T1, Isocitrate dehydrogenase [NADP] cytoplasmic; experiment: Inhibition of human recombinant IDH1 R132H mutant expressed in Escherichia coli
[22] = target: T3, Isocitrate dehydrogenase [NADP] cytoplasmic; experiment: Inhibition of IDH1 (unknown origin) expressed in Escherichia coli BL21 (DE3) cells using 2OG as substrate preincubated with compound for 2 hrs followed by substrate addition and measured after 1 hrs by spectrophotometric analysis
[23] = target: T3, Isocitrate dehydrogenase [NADP] cytoplasmic; experiment: Inhibition of human recombinant wildtype IDH1
[24] = target: T4, Isocitrate dehydrogenase [NADP], mitochondrial; experiment: Inhibition of IDH2 R140Q mutant (unknown origin) in the presence of NADPH by fluorescence based analysis
[25] = target: T5, Isocitrate dehydrogenase [NADP], mitochondrial (Homo sapiens, UniProt P48735); experiment: Inhibition of wildtype IDH2 (unknown origin)
T5 sequence (P48735 whole entry): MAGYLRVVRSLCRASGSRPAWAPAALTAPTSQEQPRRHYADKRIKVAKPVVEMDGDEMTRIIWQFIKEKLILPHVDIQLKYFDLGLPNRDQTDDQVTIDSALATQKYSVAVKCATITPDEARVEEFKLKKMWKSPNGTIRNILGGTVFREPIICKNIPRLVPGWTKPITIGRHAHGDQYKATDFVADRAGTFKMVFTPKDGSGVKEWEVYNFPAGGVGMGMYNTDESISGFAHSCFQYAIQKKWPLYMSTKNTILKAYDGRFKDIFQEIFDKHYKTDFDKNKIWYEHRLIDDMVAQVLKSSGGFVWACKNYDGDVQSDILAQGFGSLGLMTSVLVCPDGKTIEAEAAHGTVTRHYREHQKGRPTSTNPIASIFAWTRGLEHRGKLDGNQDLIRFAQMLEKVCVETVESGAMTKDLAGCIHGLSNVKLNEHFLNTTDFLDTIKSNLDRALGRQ

[26] = Selectivity index, ratio of IC50 for inhibition of wildtype IDH2 (unknown origin) to IC50 for inhibition of IDH2 R140Q mutant (unknown origin)
[27] = system: TF-1; experiment: Anticancer activity against human TF-1 cells assessed as cell growth inhibition; type: functional, cell-based

T1 sequence (O75874 2-414 R132H limits assumed): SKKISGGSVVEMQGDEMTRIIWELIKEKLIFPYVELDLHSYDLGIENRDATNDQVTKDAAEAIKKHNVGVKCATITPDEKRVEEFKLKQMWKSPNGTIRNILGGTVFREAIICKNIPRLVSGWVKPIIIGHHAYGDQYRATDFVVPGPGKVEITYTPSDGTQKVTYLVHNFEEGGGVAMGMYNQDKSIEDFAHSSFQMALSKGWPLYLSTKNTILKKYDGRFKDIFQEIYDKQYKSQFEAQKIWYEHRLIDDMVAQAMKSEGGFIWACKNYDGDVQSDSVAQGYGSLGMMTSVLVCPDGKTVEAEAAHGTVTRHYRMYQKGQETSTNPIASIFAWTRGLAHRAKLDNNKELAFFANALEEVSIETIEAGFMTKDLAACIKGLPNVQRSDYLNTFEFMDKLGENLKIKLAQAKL
T2 sequence (O75874 2-414 R132C limits assumed): as the sequence (O75874 2-414 R132H limits assumed) above, with H131C counted along it
T3 sequence (O75874 whole entry): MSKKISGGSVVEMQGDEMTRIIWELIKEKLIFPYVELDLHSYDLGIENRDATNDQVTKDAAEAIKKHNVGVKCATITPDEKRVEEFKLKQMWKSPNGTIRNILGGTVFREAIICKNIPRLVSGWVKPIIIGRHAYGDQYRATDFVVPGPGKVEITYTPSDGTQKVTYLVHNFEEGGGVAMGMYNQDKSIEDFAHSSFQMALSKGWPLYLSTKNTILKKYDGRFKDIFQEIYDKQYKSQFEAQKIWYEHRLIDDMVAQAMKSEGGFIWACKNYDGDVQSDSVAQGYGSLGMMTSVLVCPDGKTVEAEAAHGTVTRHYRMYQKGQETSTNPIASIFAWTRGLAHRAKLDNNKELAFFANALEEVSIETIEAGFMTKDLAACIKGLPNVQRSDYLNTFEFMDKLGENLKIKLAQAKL
T4 sequence (P48735 40-452 R140Q limits assumed): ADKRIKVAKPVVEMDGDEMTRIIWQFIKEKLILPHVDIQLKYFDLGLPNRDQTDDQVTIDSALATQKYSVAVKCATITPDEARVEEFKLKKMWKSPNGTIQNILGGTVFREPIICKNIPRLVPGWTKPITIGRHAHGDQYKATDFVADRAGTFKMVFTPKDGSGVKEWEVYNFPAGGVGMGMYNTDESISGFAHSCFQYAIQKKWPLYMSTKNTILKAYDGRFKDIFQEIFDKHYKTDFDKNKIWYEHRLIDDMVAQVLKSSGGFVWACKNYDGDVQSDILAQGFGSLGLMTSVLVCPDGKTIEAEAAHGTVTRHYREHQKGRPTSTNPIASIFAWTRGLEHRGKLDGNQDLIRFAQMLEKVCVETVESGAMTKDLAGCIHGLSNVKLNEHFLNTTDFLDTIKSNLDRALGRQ

IC50 [2]: 0.0186 µM
SMILES: COc1ccccc1[C@H](C)Nc1nc(N2C(=O)OC[C@@H]2[C@@H](C)O)c2cc[nH]c2n1

IC50 [3]: > 50 µM
SMILES: CCOC(=O)[C@@H]1CCN(c2ccnc(N[C@@H](C)c3nc(-c4ccc(Cl)cc4)no3)n2)C1=O

IC50 [6]: > 10 µM
SMILES: CC1CC(n2c(Nc3ccc(COC(F)(F)F)cc3)nc3cc(OCC(=O)Nc4ccccc4Cl)ccc32)CC(C)(C)C1 (stereo not drawn)

IC50 [7]: 0.047 µM | IC50 [8]: 0.135 µM
SMILES: C[C@H]1C[C@@H](n2c(Nc3ccc(OC(F)(F)F)cc3)nc3cc(CCC(=O)O)ccc32)CC(C)(C)C1 [BAY1436032]

IC50 [15]: 0.025 µM | Kp [16]: 0.62 | IC50 [17]: 0.024 µM
SMILES: Cc1cc([C@H](C)Nc2nccc(N3C(=O)OC[C@@H]3[C@H](C)F)n2)ncc1-c1ccnc(C(F)(F)F)c1

IC50 [14]: 0.083 µM
SMILES: FC(F)(F)c1cccc(-c2nc(NCC3CC3)nc(NCC3CC3)n2)n1

IC50 [2]: 0.022 µM
SMILES: C[C@H](Nc1nc(N2C(=O)OC[C@@H]2[C@@H](C)O)c2cc[nH]c2n1)c1ccccc1F

IC50 [14]: 0.027 µM
SMILES: FC1(F)CCC(Nc2nc(NC3CCC(F)(F)CC3)nc(-c3cccc(C(F)(F)F)n3)n2)CC1

IC50 [18]: 0.001 µM | IC50 [10]: 0.005 µM | IC50 [21]: 0.005 µM | IC50 [19]: 0.0005 µM
SMILES: C=CC(=O)N1CCN(C(CC2CC2)c2ccc([C@H](C)Nc3nc(F)cc(N4C(=O)OCC4(C)C)n3)cc2)CC1 (stereo partly drawn)

IC50 [3]: 0.0241 µM
SMILES: C[C@H](Nc1nccc(N2CCCC2=O)n1)c1ccc(Oc2ccccc2)cc1

Continued, molecule first:

SMILES: O=C(N1Cc2cccnc2Nc2ccc(N3CCOCC3)cc21)C12CCC3(F)CCC(CC(C3)C1)C2 (stereo not drawn)
IC50 [1]: 0.225 µM

SMILES: COC(C)(C)c1onc(-c2c(Cl)cc(Cl)cc2Cl)c1C(=O)n1ccc2c(/C=C/C(=O)O)cccc21
IC50 [4]: 0.094 µM | IC50 [5]: 0.006 µM

SMILES: C[C@H](Nc1nccc(N2CCCC2=O)n1)c1cc(-c2ccc(Cl)cc2)no1
IC50 [3]: 0.271 µM

SMILES: CC(C)(F)c1onc(-c2c(Cl)cccc2Cl)c1C(=O)n1cc2c3c(cccc31)/C(=C/C(=O)O)CC2
IC50 [4]: 0.148 µM | IC50 [5]: 0.018 µM

SMILES: O=C1c2ccccc2C(=O)C2C1C(=O)N(CCCn1cnnc1)[C@H]2c1ccc(F)cc1 (stereo partly drawn)
IC50 [9]: 8.86 µM

SMILES: CC(C)n1nc(C2=C(c3cn(CCCn4ccnc4)c4cc(Cl)ccc34)C(=O)NC2=O)c2cccnc21
IC50 [10]: 0.38 µM | IC50 [11]: 0.05 µM | IC50 [12]: ≥ 20 µM

SMILES: FC1(F)CC(Nc2nc(NC3CC(F)(F)C3)nc(-c3cccc(C(F)(F)F)n3)n2)C1
IC50 [13]: 0.013 µM | IC50 [14]: 0.009 µM

SMILES: Cn1cc(C2=C(c3cn(CCCn4ccnc4)c4cc(Cl)ccc34)C(=O)NC2=O)c2cccnc21
IC50 [11]: 0.16 µM | IC50 [12]: ≥ 10 µM

SMILES: C=CC(=O)N1CCN(Cc2ccc([C@H](C)Nc3ncc4c(n3)N(C)C(=O)OC4)cc2)CC1
IC50 [18]: 2.08 µM | IC50 [19]: 0.0449 µM | IC50 [20]: > 100 µM

SMILES: CSc1nn(-c2ccccc2C)c(-c2ccc3c(c2)OCCO3)c1-n1ccnc1
IC50 [9]: 11 µM

SMILES: CC(C)n1nc(C2=C(c3cn(CCCn4ccnc4)c4cc(Cl)ccc34)C(=O)NC2=O)c2ccccc21
IC50 [11]: 1.54 µM

SMILES: Cc1cn(C(=O)c2c(-c3c(Cl)cc(Cl)cc3Cl)noc2C(C)(C)F)c2cccc(/C=C/C(=O)O)c12 [SAFUSIDENIB]
IC50 [22]: > 10 µM | IC50 [23]: 0.18 µM | IC50 [3]: 0.0084 µM | IC50 [10]: 0.011 µM | IC50 [24]: > 10 µM | IC50 [25]: > 10 µM | Kp [16]: 0.4 | Ratio IC50 [26]: < 0.001 | IC50 [27]: 0.029 µM | IC50 [4]: 0.011 µM | IC50 [5]: 0.0084 µM

SMILES: Cn1cc(C2=C(c3c[nH]c4cc(Cl)ccc34)C(=O)NC2=O)c2cccnc21
IC50 [11]: 19.4 µM

SMILES: CC1CC(n2c(Nc3ccc(C(C)C)cc3)nc3cc(CCC(=O)O)ccc32)CC(C)(C)C1 (stereo not drawn)
IC50 [6]: 20 µM
